{
  "source": "patent US11719711B2",
  "about": "“Compositions and methods for detecting and/or treating inflammation” (THE GENERAL HOSPITAL CORPORATION, priority 2013, dated 2023)",
  "key": {"P2Y14 [1]": {"target": "T1, P2Y14 (Mus musculus, UniProt Q9ESG6)", "T1 sequence (Q9ESG6 1-338)": "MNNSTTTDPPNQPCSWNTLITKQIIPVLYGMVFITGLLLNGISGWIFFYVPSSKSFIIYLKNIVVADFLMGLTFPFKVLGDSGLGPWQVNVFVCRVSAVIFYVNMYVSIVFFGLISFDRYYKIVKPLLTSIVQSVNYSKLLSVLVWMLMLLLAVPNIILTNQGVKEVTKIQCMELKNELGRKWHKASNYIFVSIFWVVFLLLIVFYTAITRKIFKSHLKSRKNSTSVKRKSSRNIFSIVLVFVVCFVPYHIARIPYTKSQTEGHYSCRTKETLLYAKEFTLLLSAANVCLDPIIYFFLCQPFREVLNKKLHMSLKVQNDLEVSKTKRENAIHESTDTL", "conditions": "EGFP(+) cell membranes, saturating concentration 10^−5 M unlabeled ligand", "experimental": "Mice were anesthetized using pentobarbital sodium (50 mg/kg body, ip, Nembutal, Abbott Laboratories, Abbott Park, Ill.). The blood was flushed out of the organs by perfusing the animals with a phosphate-buffered saline (PBS) through the cardiac left ventricle at a constant flow rate of 17 ml/min. Kidneys were excised and sliced, and some kidneys were microdissected to separate the cortex from the medulla. Tissues were then minced immediately with scissors in RPMI 1640 medium (Invitrogen, Grand Island, N.Y.) containing 1.0 mg/ml collagenase type I (Invitrogen), 1.0 mg/ml collagenase type II (Sigma Aldrich) and 2 mg/ml hyaluronidase (Sigma Aldrich), and digested for 45 min at 37° C. A 40-μm-nylon mesh was used to remove undigested material following tissue digestion. Cells were then washed once with RPMI 1640 medium and once with a calcium-free PBS. EGFP-positive (EGFP(+)) and negative (EGFP(−)) cells were isolated immediately by FACS, based on their green fluorescence intensity, as described previously (36). […]\nConfluent MDCK-C11 cells were scrapped in ice-cold PBS, pelleted by centrifugation (500 g, 10 min) and then resuspended in 1 ml ice-cold Tris-acetate 0.2 M buffer (pH 7.5) containing protease inhibitors (Complete Mini, Roche, Indianapolis, Ind.) using a 25G needle. […] Protein concentration was determined using a nanodrop 2000 (Thermo scientific). […]"}, "P2Y14 [2]": {"target": "T2, P2Y14 (Canis lupus familiaris, UniProt A0A8I3S656)", "T2 sequence (A0A8I3S656 1-340)": "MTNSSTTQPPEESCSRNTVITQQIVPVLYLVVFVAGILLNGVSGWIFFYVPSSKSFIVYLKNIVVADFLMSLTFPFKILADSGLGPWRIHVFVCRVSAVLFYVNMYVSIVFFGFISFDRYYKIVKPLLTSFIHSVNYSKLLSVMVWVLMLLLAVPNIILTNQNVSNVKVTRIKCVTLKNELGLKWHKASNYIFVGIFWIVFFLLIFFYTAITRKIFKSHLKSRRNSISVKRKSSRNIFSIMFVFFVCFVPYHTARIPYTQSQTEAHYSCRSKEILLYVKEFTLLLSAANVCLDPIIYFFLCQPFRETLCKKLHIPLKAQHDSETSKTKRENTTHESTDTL", "experiment": "[3H]UDP-glucose dose-displacement binding to MDCK-C11 membranes", "parameters": "endogenous in cells; host or cells: MDCK-C11 cells (Madin-Darby Canine Kidney subclone C11), not transfected; species or system Canine", "conditions": "MDCK-C11 membranes 15 μg, [3H]UDP-glucose 3 nM, 3 hours 22° C., increasing concentrations (ATP up to 10 μM)", "experimental": "Incubation was terminated by the addition of ice-cold 50 mM Tris/HCl pH 7.4, 1 mM EDTA, 5 mM MgCl2 and was followed immediately by filtration under vacuum through Gelman A/E glass filters (Pall life science, An Arbor, Mich.) pre-soaked in binding buffer. The filters were rinsed twice before the addition of 5 ml of scintillation fluid (OpticFluor, Groninge, The Netherlands). Receptor-bound radioactivity was measured using liquid scintillation analyzer Tricarb 2200 CA from Parckard. All assays were performed in triplicate. […] Incubations were stopped by the addition of ice-cold buffer and receptor-bound radioactivity was determined as described above. The equilibrium dissociation constant (Kd) and the capacity of binding in dose-displacement studies were calculated using a scatchard plot and are expressed as the mean±SD. Statistical analysis were performed using the unpaired Student t-test."}, "[3]": {"system": "pro-inflammatory chemokine mRNA expression in MDCK-C11 cells", "experiment": "Quantitative PCR of pro-inflammatory mediators in MDCK-C11 cells", "assay_type": "cell-based, Canine", "experimental": "Total RNA was isolated from cells using RNeasy micro kit (Qiagen, Valencia, Calif.) and from tissues using RNeasy Mini kit, as described previously (36). DNase I digestion was performed using RNase-Free DNase Set (Qiagen) according to the manufacturer's instructions. All reverse transcription (RT) and PCR reagents were from Applied Biosystems (Foster City, Calif.). Reverse-transcription was performed for 1 h at 42° C. in a final volume of 50 μl with 1× buffer II, 5 mM MgCl2, 1.0 mM each dNTP, 1 U/μl RNase inhibitor, 2.5 μM random hexamers, and 2.5 U/μl MuLV reverse transcriptase. PCR was performed on RT products. For end point PCRs, reaction mixtures consisted of a 20 μl final volume containing 2 μl template, 1.25 units AmpliTaq Gold DNA polymerase, lx buffer II, 1.5 mM MgCl2, 1.0 mM each dNTP, and 0.5 μM forward and reverse oligonucleotide primers. The following parameters were used for PCR: 8 min at 95° C. to activate the polymerase, 35 cycles of melting for 30 s at 95° C., annealing for 30 s at 60° C., extension for 30 s at 72° C., and a final extension for 10 min at 72° C. The amplification products were visualized by electrophoresis on a 1-2% agarose gel containing GelStar stain (Lonza, Rockland, Me.).\nReal Time PCR was performed with a 7300 Real Time PCR system (Applied Biosystems). Amplification products were detected using the Power SYBR Green PCR master mix (Applied Biosystems), according to the manufacturer's instructions. Standard-curve relative quantifications were performed and relative values of each sample were normalized to GAPDH values. Samples were analyzed in triplicates for each experiment.\nMDCK-C11 cells were cultured at 37° C. in a 5% CO2-95% O2 mix in DMEM (Invitrogen) supplemented with 2 mM glutamine, 10% fetal bovine serum (Invitrogen), penicillin (100 U/ml), and streptomycin (100 μg/ml) (Invitrogen). Prior to any treatment, cells were serum starved for 24 hours. For cell surface biotinylation assays, cells were either grown to confluence on plastic dishes or on filters. Biotinylation was performed as described previously (75). Briefly cells were incubated with 1 mg/ml of biotin (Thermo Scientific, Pittsburgh, Pa.) in PBS pH 8 on ice for 1 h. The excess biotin was quenched with 100 mM glycine and cells were either further processed for immunostaining or lysed in lysis buffer [150 mM NaCl, 5 mM EDTA, 50 mM Tris/HEPES, pH 7.5; 1% (vol/vol) Triton X-100] containing protease and phosphatase inhibitors (Complete Mini EDTA free, PhosSTOP, Roche Diagnostics, Laval, Canada), for 20 min at 4° C. Total protein expression was determined in 2-5 μg of proteins from the total cell extracts. 50-100 μg of cell lysate proteins were incubated with neutravidin beads (Thermo Scientific) overnight at 4° C. […]"}, "P2Y14 [4]": {"target": "T1, P2Y14", "experiment": "ERK1/2 phosphorylation in FACS isolated EGFP(+) intercalated cells (immunoblot)", "assay_type": "cell-based", "parameters": "using total membranes separated from FACS isolated EGFP(+) cells and EGFP(−) cells; endogenous in cells; host or cells: EGFP(+) intercalated cells freshly isolated by FACS from kidneys of B1-EGFP transgenic mice", "conditions": "with PPTN", "experimental": "Mice were anesthetized using pentobarbital sodium (50 mg/kg body, ip, Nembutal, Abbott Laboratories, Abbott Park, Ill.). The blood was flushed out of the organs by perfusing the animals with a phosphate-buffered saline (PBS) through the cardiac left ventricle at a constant flow rate of 17 ml/min. Kidneys were excised and sliced, and some kidneys were microdissected to separate the cortex from the medulla. Tissues were then minced immediately with scissors in RPMI 1640 medium (Invitrogen, Grand Island, N.Y.) containing 1.0 mg/ml collagenase type I (Invitrogen), 1.0 mg/ml collagenase type II (Sigma Aldrich) and 2 mg/ml hyaluronidase (Sigma Aldrich), and digested for 45 min at 37° C. A 40-μm-nylon mesh was used to remove undigested material following tissue digestion. Cells were then washed once with RPMI 1640 medium and once with a calcium-free PBS. EGFP-positive (EGFP(+)) and negative (EGFP(−)) cells were isolated immediately by FACS, based on their green fluorescence intensity, as described previously (36). Cell isolation was performed at the MGH flow cytometry core facility using a modified FACS Vantage cell sorter (BD Biosciences, San Jose, Calif.). FACS isolated samples were collected in PBS and used without delay for subsequent treatment and/or cell fractionation, protein and RNA isolation, or imaging. […]"}, "P2Y14 [5]": {"target": "T2, P2Y14", "conditions": "MDCK-C11 cells, PPTN 10 μM pre-treatment 30 minutes, 100 μM UDP-glucose"}, "[6]": {"conditions": "PD98059 50 μM pretreatment 30 minutes"}},
  "data": [
    {"smiles": "Nc1ncnc2c1ncn2[C@@H]1O[C@H](COP(=O)(O)OP(=O)(O)OP(=O)(O)O)[C@@H](O)[C@H]1O", "note": "[ATP]", "values": [
      {"measurement": "displacement of [3H]UDP-glucose binding", "setting": "P2Y14 [1]", "result": "not with ATP"},
      {"measurement": "inhibition of [3H]UDP-glucose binding by unlabeled ligand", "setting": "P2Y14 [2]", "result": "no significant inhibitory effect"}
    ]},
    {"smiles": "COc1cccc(-c2cc(=O)c3ccccc3o2)c1N", "note": "[PD98059]", "values": [
      {"measurement": "UDP-glucose induced up regulation of CCL-2 mRNA", "setting": "[3]; [6]", "result": "abolished"},
      {"measurement": "UDP-glucose induced up regulation of IL-8 mRNA", "setting": "[3]; [6]", "result": "abolished"}
    ]},
    {"smiles": "O=C(O)c1cc(-c2ccc(C3CCNCC3)cc2)c2ccc(-c3ccc(C(F)(F)F)cc3)cc2c1", "note": "[PPTN, 4-[4-(piperidin-4-yl)phenyl]-7-[4-(trifluoromethyl)phenyl]-2-naphthoic acid]", "values": [
      {"measurement": "UDP-glucose dependent ERK phosphorylation in ICs isolated by FACS (FIG. 14)", "setting": "P2Y14 [4]", "result": "inhibits"},
      {"measurement": "increase in CCl2 mRNA expression induced by UDP-glucose", "setting": "[3]; PPTN pretreatment 30 minutes", "result": "abolished"},
      {"measurement": "increase in IL8 mRNA expression induced by UDP-glucose", "setting": "[3]; PPTN pretreatment 30 minutes", "result": "abolished"},
      {"measurement": "UDP-glucose induced increase in ERK1/2 phosphorylation", "setting": "P2Y14 [5]", "result": "abolished"}
    ]}
  ]
}
